Source: patent publication US20250099596A1, “TETRAHYDRONAPHTHALENE COMPOUND, AND PREPARATION METHOD THEREFOR AND USE THEREOF IN MEDICINE” (Jiangsu Hengrui Pharmaceuticals Co., Ltd., priority 2021, published 2025)

What was measured:
[1] = test system: MCF7/ERα Y537S cells; test: Inhibitory activity on proliferation of ERα mutant-expressing MCF7 cells; assay type: cell-based; conditions: Homo sapiens, 144 h, 6 days incubation, CellTiter-Glo, read-out: IC50 (nM), inhibition of proliferation of ERα mutant-expressing MCF7 cells
Protocol: The objective of this experiment was to determine the inhibitory activity of the compounds of the present disclosure on the proliferation of ERα mutant-expressing MCF7 cells.
(§1) MCF7 cells expressing the ERα Y537S mutant were constructed by lentiviral infection. MCF7/ERα Y537S cells were cultured in an MEM (GE Healthcare, SH30024.01) complete medium containing 10% fetal bovine serum and 1 g/mL puromycin. On day 1 of the experiment, cells were seeded into a 96-well plate at a density of 3,000 cells/well using MEM containing 2% fetal bovine serum, with each well containing 135 µL of cell suspension. The plate was incubated in a 37° C., 5% CO2 cell incubator overnight. The next day, different concentrations of test compounds prepared in media were added at 15 μL/well. The final concentrations of the compounds were 9 concentration points obtained by 4-fold serial dilution from 1000 nM. A blank control containing 0.5% DMSO was set up. The plate was incubated in a 37° C., 5% CO2 cell incubator for 6 days. On day 8, the 96-well cell culture plate was taken out, and CellTiter-Glo® Luminescent Cell Viability Assay (Promega, G7573) was added at 75 µL/well. After the plate was left at room temperature for 10 min, luminescence signal readings were taken on a multilabel microplate reader (PerkinElmer, VICTOR 3). The IC50 values for the inhibitory activity of the compounds were calculated from the concentrations of the compounds and the luminescence signal readings using Graphpad Prism software.

[2] = test system: MCF7 cells; test: Inhibitory effects on MCF7 cell proliferation (CellTiter-Glo); assay type: cell-based; conditions: Homo sapiens, 144 h, 6 days incubation, read-out: IC50 (nM), inhibition of MCF7 cell proliferation
Protocol: as §1, with “(TCHu74, National Collection of Authenticated Cell Cultures)” for “expressing the ERα Y537S mutant were constructed by lentiviral infection. MCF7/ERα Y537S cells”, “serum.” for “serum and 1 g/mL puromycin.”, “experiment, MCF7” for “experiment,”, “μL” for “µL”, “μL/well.” for “µL/well.”

IC50 [1]	IC50 [2]	SMILES
7.83 nM	1.94 nM	O=C1CCC(N2Cc3cc(N4CCN(CC5CCN(c6ccc([C@@H]7c8ccc(O)cc8CCC78CCCC8)cc6)CC5)CC4)ccc3C2=O)C(=O)N1 (mixture of isomers) [Example 2-1, 3-(5-(4-((1-(4-((R)-6′-Hydroxy-3′,4′-dihydro-1′H-spiro[cyclopentane-1,2′-naphthalen]-1′-yl)phenyl)piperidin-4-yl)methyl)piperazin-1-yl)-1-oxoisoindolin-2-yl)piperidine-2,6-dione]
4.71 nM	0.92 nM	O=C1CCC(N2Cc3cc(N4CCN(CC5CCN(c6ccc([C@@H]7c8ccc(O)cc8CC[C@@H]7C7CCOCC7)cc6F)CC5)CC4)ccc3C2=O)C(=O)N1 (mixture of isomers) [Example 4-1, 3-(5-(4-((1-(2-Fluoro-4-((1R,2R)-6-hydroxy-2-(tetrahydro-2H-pyran-4-yl)-1,2,3,4-tetrahydronaphthalen-1-yl)phenyl)piperidin-4-yl)methyl)piperazin-1-yl)-1-oxoisoindolin-2-yl)piperidine-2,6-dione]
2.8 nM	0.46 nM	O=C1CCC(N2Cc3cc(N4CCN(CC5CCN(c6ccc([C@@H]7c8ccc(O)cc8CC[C@@H]7C7CCOCC7)cc6)CC5)CC4)ccc3C2=O)C(=O)N1 (mixture of isomers) [Example 8-1, 3-(5-(4-((1-(4-((1R,2R)-6-Hydroxy-2-(tetrahydro-2H-pyran-4-yl)-1,2,3,4-tetrahydronaphthalen-1-yl)phenyl)piperidin-4-yl)methyl)piperazin-1-yl)-1-oxoisoindolin-2-yl)piperidine-2,6-dione]
1.38 nM	0.3 nM	O=C1CCC(N2Cc3cc(N4CCN(CC5CCN(c6ccc([C@@H]7c8ccc(O)cc8CC[C@@H]7C7CCC(F)(F)CC7)cc6)CC5)CC4)ccc3C2=O)C(=O)N1 (mixture of isomers) [Example 10, 3-(5-(4-((1-(4-((1R,2R)-2-(4,4-Difluorocyclohexyl)-6-hydroxy-1,2,3,4-tetrahydronaphthalen-1-yl)phenyl)piperidin-4-yl)methyl)piperazin-1-yl)-1-oxoisoindolin-2-yl)piperidine-2,6-dione]
1.28 nM	0.45 nM	O=C1CCC(N2Cc3cc(N4CCN(CC5CCN(c6ccc([C@@H]7c8ccc(O)cc8CC[C@@H]7C7CCOCC7)c(F)c6)CC5)CC4)ccc3C2=O)C(=O)N1 (mixture of isomers) [Example 12-1, 3-(5-(4-((1-(3-Fluoro-4-((1S,2R)-6-hydroxy-2-(tetrahydro-2H-pyran-4-yl)-1,2,3,4-tetrahydronaphthalen-1-yl)phenyl)piperidin-4-yl)methyl)piperazin-1-yl)-1-oxoisoindolin-2-yl)piperidine-2,6-dione]
39.4 nM	13.7 nM	O=C1CCC(N2Cc3cc(N4CCN(CC5CCN(c6ccc([C@H]7c8ccc(O)cc8CC[C@H]7C7CCOCC7)c(F)c6)CC5)CC4)ccc3C2=O)C(=O)N1 (mixture of isomers) [Example 12-2, 3-(5-(4-((1-(3-Fluoro-4-((1R,2S)-6-hydroxy-2-(tetrahydro-2H-pyran-4-yl)-1,2,3,4-tetrahydronaphthalen-1-yl)phenyl)piperidin-4-yl)methyl)piperazin-1-yl)-1-oxoisoindolin-2-yl)piperidine-2,6-dione]
2.45 nM	0.75 nM	O=C1CCC(N2Cc3cc(N4CCN(CC5CCN(c6ccc([C@@H]7c8ccc(O)cc8CC[C@@H]7C7CCCC7)cc6)CC5)CC4)ccc3C2=O)C(=O)N1 (mixture of isomers) [Example 14-1, 3-(5-(4-((1-(4-((1R,2R)-2-Cyclopentyl-6-hydroxy-1,2,3,4-tetrahydronaphthalen-1-yl)phenyl)piperidin-4-yl)methyl)piperazin-1-yl)-1-oxoisoindolin-2-yl)piperidine-2,6-dione]
2.18 nM	0.46 nM	O=C1CCC(N2Cc3cc(N4CCN(CC5CCN(c6ccc([C@@H]7c8ccc(O)cc8CC[C@@H]7C7CCCCC7)cc6)CC5)CC4)ccc3C2=O)C(=O)N1 (mixture of isomers) [Example 15-1, 3-(5-(4-((1-(4-((1R,2R)-2-Cyclohexyl-6-hydroxy-1,2,3,4-tetrahydronaphthalen-1-yl)phenyl)piperidin-4-yl)methyl)piperazin-1-yl)-1-oxoisoindolin-2-yl)piperidine-2,6-dione]
7.53 nM	2.39 nM	O=C1CCC(N2Cc3cc(N4CCN(CC5CCN(c6ccc([C@@H]7c8ccc(O)cc8CCC78CCC8)cc6)CC5)CC4)ccc3C2=O)C(=O)N1 (mixture of isomers) [Example 23-1, 3-(5-(4-((1-(4-((R)-6′-Hydroxy-3′,4′-dihydro-1′H-spiro[cyclobutane-1,2′-naphthalen]-1′-yl)phenyl)piperidin-4-yl)methyl)piperazin-1-yl)-1-oxoisoindolin-2-yl)piperidine-2,6-dione]
72.1 nM	20 nM	O=C1CCC(N2Cc3cc(N4CCN(CC5CCN(c6ccc([C@H]7c8ccc(O)cc8CCC78CCC8)cc6)CC5)CC4)ccc3C2=O)C(=O)N1 (mixture of isomers) [Example 23-2, 3-(5-(4-((1-(4-((S)-6′-Hydroxy-3′,4′-dihydro-1′H-spiro[cyclobutane-1,2′-naphthalen]-1′-yl)phenyl)piperidin-4-yl)methyl)piperazin-1-yl)-1-oxoisoindolin-2-yl)piperidine-2,6-dione]
12.9 nM	2.46 nM	CC1(C)CCc2cc(O)ccc2[C@H]1c1ccc(N2CCC(CN3CCN(c4ccc5c(c4)CN(C4CCC(=O)NC4=O)C5=O)CC3)CC2)cc1 (mixture of isomers) [Example 25-1, 3-(5-(4-((1-(4-((R)-6-Hydroxy-2,2-dimethyl-1,2,3,4-tetrahydronaphthalen-1-yl)phenyl)piperidin-4-yl)methyl)piperazin-1-yl)-1-oxoisoindolin-2-yl)piperidine-2,6-dione]
2.89 nM	0.62 nM	CC(C)C[C@H]1CCc2cc(O)ccc2[C@H]1c1ccc(N2CCC(CN3CCN(c4ccc5c(c4)CN(C4CCC(=O)NC4=O)C5=O)CC3)CC2)cc1 (mixture of isomers) [Example 41, 3-(5-(4-((1-(4-((1R,2R)-6-Hydroxy-2-isobutyl-1,2,3,4-tetrahydronaphthalen-1-yl)phenyl)piperidin-4-yl)methyl)piperazin-1-yl)-1-oxoisoindolin-2-yl)piperidine-2,6-dione]
5.79 nM	1.56 nM	O=C1CCC(N2Cc3cc(N4CCN(CC5CCN(c6ccc([C@@H]7c8ccc(O)cc8CC[C@@H]7C7CCOCC7)cc6F)CC5)CC4)ccc3C2=O)C(=O)N1 (relative stereo) [Example 3, 3-(5-(4-((1-(2-Fluoro-4-((1,2)-cis-6-hydroxy-2-(tetrahydro-2H-pyran-4-yl)-1,2,3,4-tetrahydronaphthalen-1-yl)phenyl)piperidin-4-yl)methyl)piperazin-1-yl)-1-oxoisoindolin-2-yl)piperidine-2,6-dione]
19.2 nM	1.51 nM	O=C1CCC(N2Cc3cc(N4CCN(CC5CCN(c6ccc([C@@H]7c8ccc(O)cc8CC[C@@H]7CC7CC7)cc6)CC5)CC4)ccc3C2=O)C(=O)N1 (stereo in doubt) [Example 34, (S)-3-(5-(4-((1-(4-((1R,2R)-2-(Cyclopropylmethyl)-6-hydroxy-1,2,3,4-tetrahydronaphthalen-1-yl)phenyl)piperidin-4-yl)methyl)piperazin-1-yl)-1-oxoisoindolin-2-yl)piperidine-2,6-dione]

SMILES	IC50 [1]	IC50 [2]
O=C1CCC(N2Cc3nc(N4CCN(CC5CCN(c6ccc([C@@H]7c8ccc(O)cc8CCC78CCCC8)cc6)CC5)CC4)ccc3C2=O)C(=O)N1 (mixture of isomers) [Example 6, 3-(2-(4-((1-(4-((R)-6′-Hydroxy-3′,4′-dihydro-1′H-spiro[cyclopentane-1,2′-naphthalen]-1′-yl)phenyl)piperidin-4-yl)methyl)piperazin-1-yl)-5-oxo-5,7-dihydro-6H-pyrrolo[3,4-b]pyridin-6-yl)piperidine-2,6-dione]	3.19 nM	0.75 nM
